From the SangsterLogP compilation
Square brackets hold non-standard residues; d marks the D form. Peptide text beside a SMILES is read from it. NMeF = CN[CH](Cc1ccccc1)C(=O)O

How the values were obtained:
[1] = method code SF-AS, from Zhang, L.; Fu, G.; Wan, Y. (2014). Determination of verbascoside and its oil-water partition coefficient by ultraviolet spectrophotometry. Shipin Anquan ZhiliangJjiance Xuebao, 5(2)528-532.
[2] = method code SF-AS, from DOI: 10.1016/j.ejmech.2009.02.028, PMID: 19321234
[3] = not given; remark: listed apart in the source
[4] = method code SF-HPLC, from DOI: 10.1248/cpb.38.1906, PMID: 2268893; settings: pH 6.9
[5] = method code SF, from DOI: 10.1021/jm00169a014, PMID: 2362268; settings: pH 7.4
[6] = not given; remark: listed apart in the source
[7] = method code SF-AS, from DOI: 10.1021/ja00198a050
[8] = method code SF, from DOI: 10.1021/jm00262a020, PMID: 4716184
[9] = method code SF-HPLC, from DOI: 10.1002/jccs.199500138
[10] = pH 6.5
[11] = method code SF, from DOI: 10.1021/jm00088a010, PMID: 1350310
[12] = method code SF, from DOI: 10.1016/0006-2952(92)90292-q, PMID: 1371213; settings: pH 7.4
[13] = method code SF-AS, from DOI: 10.1016/s0026-895x(25)13330-0, PMID: 3162758; settings: pH 4.5
[14] = method code SF-AS, from DOI: 10.1016/j.ejmech.2010.02.047, PMID: 20227799; settings: pH 7.4
[15] = method code SF-HPLC, from Xiong, Ð. (2009). Apparent partiton coefficient of hawthorn leaf flavonoids in phospholipids complex. Chinese Traditional Patent Medicine, 31(7)1075-1078.
[16] = method code SF-AS, from DOI: 10.1111/j.1476-5381.1987.tb08980.x, PMID: 3036289; settings: pH 7.4
[17] = method code SF-RC, from DOI: 10.1016/j.nucmedbio.2016.01.003, PMID: 27067043; settings: pH 7.4
[18] = method code SF-AS, from DOI: 10.1021/jm00371a014, PMID: 6716401; settings: pH 7.4
[19] = not given; remark: listed apart in the source
[20] = method code SF-RC, from DOI: 10.1021/jm00392a008, PMID: 3625705
[21] = not given; remark: listed apart in the source
[22] = method code SF-RC, from DOI: 10.1023/a:1015867608405, PMID: 1614980; settings: pH 7.4
[23] = method code SF-HPLC, from DOI: 10.1016/j.ejps.2006.07.007, PMID: 16997537; settings: pH 7.4
[24] = method code SF-HPLC, from DOI: 10.1002/jlac.1995199512306
[25] = not given; remark: listed apart in the source

`C[C@@H]1O[C@@H](OC2[C@@H](O)C(OCCc3ccc(O)c(O)c3)OC(CO)[C@H]2OC(=O)/C=C/c2ccc(O)c(O)c2)[C@H](O)C(O)C1O` (stereo partly specified) gave a logP [1] of -0.57.
For `COC(=O)CC(O)CC(O)C=Cn1c(C(C)C)nc(-c2cccc(Br)c2)c1-c1ccc(F)cc1` (stereo unspecified), the logP was 2.8.
Compound `CCCCCCCCCCCCCC(=O)NC(C(=O)Nc1ccn(C2OC(CO)C(O)C2O)c(=O)n1)c1ccc(O)cc1` (stereo unspecified) has a logP [2] of 0.9.
Compound `CCCN(CCC)C(=O)Cc1c(-c2ccc(OC(=O)NCCc3ccc(O)c(O)c3)cc2)nc2c(Cl)cc(Cl)cn12` has a logP [3] of 4.79.
In the case of `CCOC(=O)OCCC(SC(=O)OCC)=C(C)N(C=O)CC1=C(C(=O)OCOC(=O)C(C)(C)C)N2C(=O)C(NC(=O)C(=NOC)c3csc(N)n3)C2SC1` (stereo unspecified), the logD [4] is reported as 3.34.
Work on `C=C1[C@@H](C)[C@H]2[C@H](Cc3ccccc3)NC(=O)[C@]23OC(=O)/C=C\[C@H](O)CCC[C@@H](C)C/C=C/[C@H]3[C@@H]1O` yielded a logD [5] of 3.37.
For `CCCCCCCCc1ccc(OCC(=O)Cn2cc(C(C)=O)c3cc(C(=O)O)ccc32)cc1`, the logP [6] was 5.8.
For `CC(C)(C)c1ccc2c(c1)OCCOCCOCCOCCOCCOCCOCCOCCOCCO2`, the logP [7] was 1.69.
`CC[C@@H](C(=O)[C@@H](C)[C@@H](O)[C@H](C)CCc1ccc(C)c(O)c1C(=O)O)[C@H]1O[C@](CC)([C@H]2CC[C@](O)(CC)[C@H](C)O2)C[C@@H]1C` gave a logP [8] of 2.85.
In the case of `CC(=O)O[C@@H]1CC[C@]2(C)C3=CC[C@]4(C)[C@@H]([C@H](C)CC/C=C(\C)C(=O)O)C[C@@H](OC(C)=O)[C@@]4(C)C3=CC[C@H]2C1(C)C`, the logP [9] is reported as 2.74.
Work on `CCN1CC(C(O)C(CC2CCCCC2)NC(=O)C(Cc2cc[nH]n2)NC(=O)C(CC(=O)N2CCOCC2)Cc2ccccc2)OC1=O` (stereo unspecified) yielded a logD [10] of 2.52.
In the case of `O=C(COc1ccc(OCCNCC(O)COc2ccccc2)cc1)N1CCc2ccccc2C1` (stereo unspecified), the logP [11] is reported as 3.6.
For `CN(CC(=O)N[C@@H]1CC[C@@]2(O)[C@H]3Cc4ccc(O)c5c4[C@@]2(CCN3CC2CC2)[C@H]1O5)c1ccc([N+](=O)[O-])c2nonc12`, the logD [12] was 1.
Compound `COc1cc([C@@H]2c3cc4c(cc3[C@@H](O[C@@H]3O[C@@H]5CO[C@@H](c6cccs6)O[C@H]5[C@H](O)[C@H]3O)[C@H]3COC(=O)[C@H]23)OCO4)cc(OC)c1O` has a logD [13] of 1.8.
In the case of `COc1ccc(-c2oc3cc(C(C)=O)cc(OC)c3c(=O)c2-c2ccc(-c3ccccc3)cc2)cc1OC`, the logD [14] is reported as 3.95.
In the case of `C[C@@H]1O[C@@H](O[C@@H]2[C@@H](O)[C@H](O)[C@@H](CO)O[C@H]2c2c(O)cc(O)c3c(=O)cc(-c4ccc(O)cc4)oc23)[C@H](O)[C@H](O)[C@H]1O`, the logP [15] is reported as -0.92.
With `C[C@@H]1O[C@@H](O[C@H]2C[C@@H](O)[C@]3(CO)[C@H]4[C@H](O)C[C@]5(C)[C@@H]([C@@H]6COC(=O)C6)CC[C@]5(O)[C@@H]4CC[C@]3(O)C2)[C@H](O)[C@H](O)[C@H]1O` the logD [16] was -0.7.
In the case of `C=CC(=O)NCCCC[C@H](NC(=O)Cc1ccccc1)C(=O)N1CCN(c2cccc(C)n2)CC1`, the logD [17] is reported as 2.09.
`COc1cccc2c1C(=O)c1c(O)c3c(c(O)c1C2=O)CC(O)(C(C)=O)CC3OC1CC(N2CCOCC2C#N)C(O)C(C)O1` (stereo unspecified) gave a logD [18] of 2.59.
Work on `O=C(CCCCCCCCCCn1ccnc1[N+](=O)[O-])Nc1ccc(-c2nc3ccccc3s2)cc1` yielded a logP [19] of 1.99.
Compound `CC/C=C\C/C=C\C/C=C\CCCCCCCC(=O)OCC(COC(=O)CCCN)OC(=O)CCCN` (stereo unspecified) has a logP [20] of 0.33.
Compound `CC(C)C[C@H](NC(=O)Cc1ccc(C(=O)O)c(OCCF)c1)c1ccccc1N1CCCCC1` has a logP [21] of 2.39.
Compound `CC(=O)NC(Cc1ccccc1)C(=O)N(C)C(Cc1ccccc1)C(=O)N(C)C(Cc1ccccc1)C(N)=O` (stereo unspecified) (Ac-Phe-[NMeF]-[NMeF]-NH2; configuration not given here) has a logD [22] of 2.53.
Work on `CCN(CC)C(=O)COC(=O)C1OC(Oc2cc3oc(-c4ccc(O)cc4)cc(=O)c3c(O)c2O)C(O)C(O)C1O` (stereo unspecified) yielded a logD [23] of 1.48.
In the case of `Cc1cn(C2CC(N=[N+]=[N-])C(COP(=O)(OCc3ccc(Cl)cc3)OCC3OC(n4cc(C)c(=O)[nH]c4=O)CC3N=[N+]=[N-])O2)c(=O)[nH]c1=O` (stereo unspecified), the logP [24] is reported as 2.06.
In the case of `Cc1c(O)cccc1C(=O)N[C@@H](CSc1ccccc1)[C@H](O)CN1C[C@H]2CCCC[C@H]2C[C@H]1C(=O)NC(C)(C)C`, the logP [25] is reported as 4.
